Measured values published in ChEMBL document CHEMBL3046566, “In vitro antimycobacterial activity of novel N-(4-(substituted phenyl amino)-6-(pyridin-2-ylamino)-1,3,5-triazin-2-yl)isonicotinohydrazide” (Med Chem Res, 2011).
≈ marks a conversion by molar mass, not a printed value.

Key:
[1] = test system: Mycobacterium tuberculosis; assay: Growth inhibition of Mycobacterium tuberculosis H37Rv ATCC 27294 at 0.0550 uM by radiometric analysis; type: functional; conditions: read-out: GI
Vero = assay: Cytotoxicity against Chlorocebus aethiops (African green monkey) Vero cells up to 62.5 ug/ml after 72 hr by MTT assay; type: cell-based; conditions: chlorocebus sabaeus
[2] = test system: Mycobacterium tuberculosis; assay: Antimycobacterial activity against Mycobacterium tuberculosis H37Rv ATCC 27294 by microdilution alamar blue assay; type: functional
[3] = test system: Mycobacterium tuberculosis; assay: Growth inhibition of Mycobacterium tuberculosis H37Rv ATCC 27294 at 0.0311 uM by radiometric analysis; type: functional; conditions: read-out: GI
[4] = test system: Mycobacterium tuberculosis; assay: Growth inhibition of Mycobacterium tuberculosis H37Rv ATCC 27294 at 0.0650 uM by radiometric analysis; type: functional; conditions: read-out: GI
[5] = test system: Mycobacterium tuberculosis; assay: Growth inhibition of Mycobacterium tuberculosis H37Rv ATCC 27294 at 0.1229 uM by radiometric analysis; type: functional; conditions: read-out: GI
[6] = test system: Mycobacterium tuberculosis; assay: Growth inhibition of Mycobacterium tuberculosis H37Rv ATCC 27294 at 0.1110 uM by radiometric analysis; type: functional; conditions: read-out: GI
[7] = test system: Mycobacterium tuberculosis; assay: Growth inhibition of Mycobacterium tuberculosis H37Rv ATCC 27294 at 0.0250 uM by radiometric analysis; type: functional; conditions: read-out: GI
[8] = test system: Mycobacterium tuberculosis; assay: Growth inhibition of Mycobacterium tuberculosis H37Rv ATCC 27294 at 0.1218 uM by radiometric analysis; type: functional; conditions: read-out: GI
[9] = test system: Mycobacterium tuberculosis; assay: Growth inhibition of Mycobacterium tuberculosis H37Rv ATCC 27294 at 0.7110 uM by radiometric analysis; type: functional; conditions: read-out: GI
[10] = test system: Mycobacterium tuberculosis; assay: Growth inhibition of Mycobacterium tuberculosis H37Rv ATCC 27294 at 0.0418 uM by radiometric analysis; type: functional; conditions: read-out: GI
[11] = test system: Mycobacterium tuberculosis; assay: Growth inhibition of Mycobacterium tuberculosis H37Rv ATCC 27294 at 0.0211 uM by radiometric analysis; type: functional; conditions: read-out: GI
[12] = test system: Mycobacterium tuberculosis; assay: Growth inhibition of Mycobacterium tuberculosis H37Rv ATCC 27294 at 0.1214 uM by radiometric analysis; type: functional; conditions: read-out: GI
[13] = test system: Mycobacterium tuberculosis; assay: Growth inhibition of Mycobacterium tuberculosis H37Rv ATCC 27294 at 0.1211 uM by radiometric analysis; type: functional; conditions: read-out: GI
[14] = test system: Mycobacterium tuberculosis; assay: Growth inhibition of Mycobacterium tuberculosis H37Rv ATCC 27294 at 0.1127 uM by radiometric analysis; type: functional; conditions: read-out: GI
[15] = test system: Mycobacterium tuberculosis; assay: Growth inhibition of Mycobacterium tuberculosis H37Rv ATCC 27294 at 0.1277 uM by radiometric analysis; type: functional; conditions: read-out: GI
[16] = test system: Mycobacterium tuberculosis; assay: Growth inhibition of Mycobacterium tuberculosis H37Rv ATCC 27294 at 0.0677 uM by radiometric analysis; type: functional; conditions: read-out: GI
[17] = test system: Mycobacterium tuberculosis; assay: Growth inhibition of Mycobacterium tuberculosis H37Rv ATCC 27294 at 0.6890 uM by radiometric analysis; type: functional; conditions: read-out: GI
[18] = test system: Mycobacterium tuberculosis; assay: Growth inhibition of Mycobacterium tuberculosis H37Rv ATCC 27294 at 0.1109 uM by radiometric analysis; type: functional; conditions: read-out: GI
[19] = test system: Mycobacterium tuberculosis; assay: Growth inhibition of Mycobacterium tuberculosis H37Rv ATCC 27294 at 0.0614 uM by radiometric analysis; type: functional; conditions: read-out: GI

O=C(NNc1nc(Nc2cccc(Cl)c2)nc(Nc2ccccn2)n1)c1ccncc1
inhibition of growth at 0.055 µM [1]: 82%

O=C(NNc1nc(Nc2ccccn2)nc(Nc2c(Cl)cccc2Cl)n1)c1ccncc1
Activity (Vero): Non-toxic | MIC [2]: 4.69 µg/mL (≈ 10 µM) | inhibition of growth at 0.0311 µM [3]: 91%

O=C(NNc1nc(Nc2ccccn2)nc(Nc2ccccc2Cl)n1)c1ccncc1
inhibition of growth at 0.065 µM [4]: 80%

O=C(NNc1nc(Nc2ccccn2)nc(Nc2ccccc2O)n1)c1ccncc1
inhibition of growth at 0.1229 µM [5]: 71%

Cc1ccccc1Nc1nc(NNC(=O)c2ccncc2)nc(Nc2ccccn2)n1
inhibition of growth at 0.111 µM [6]: 71%

O=C(NNc1nc(Nc2ccc(Cl)cc2)nc(Nc2ccccn2)n1)c1ccncc1
inhibition of growth at 0.025 µM [7]: 94% | MIC [2]: 5.91 µg/mL (≈ 13.6 µM)

Cc1cccc(Nc2nc(NNC(=O)c3ccncc3)nc(Nc3ccccn3)n2)c1
inhibition of growth at 0.1218 µM [8]: 74%

O=C(NNc1nc(Nc2ccccc2)nc(Nc2ccccn2)n1)c1ccncc1
inhibition of growth at 0.711 µM [9]: 71%

NS(=O)(=O)c1ccc(Nc2nc(NNC(=O)c3ccncc3)nc(Nc3ccccn3)n2)cc1
Activity (Vero): Non-toxic | MIC [2]: 6 µg/mL (≈ 12.5 µM) | inhibition of growth at 0.0418 µM [10]: 90%

COc1ccc(Nc2nc(NNC(=O)c3ccncc3)nc(Nc3ccccn3)n2)cc1
Activity (Vero): Non-toxic | MIC [2]: 4.11 µg/mL (≈ 9.57 µM) | inhibition of growth at 0.0211 µM [11]: 94%

O=C(NNc1nc(Nc2ccccn2)nc(Nc2ccccc2[N+](=O)[O-])n1)c1ccncc1
inhibition of growth at 0.1214 µM [12]: 67%

O=C(NNc1nc(Nc2ccc([N+](=O)[O-])cc2)nc(Nc2ccccn2)n1)c1ccncc1
inhibition of growth at 0.1211 µM [13]: 69%

Cc1ccc(Nc2nc(NNC(=O)c3ccncc3)nc(Nc3ccccn3)n2)cc1
inhibition of growth at 0.1127 µM [14]: 77%

O=C(NNc1nc(Nc2ccc(O)cc2)nc(Nc2ccccn2)n1)c1ccncc1
inhibition of growth at 0.1277 µM [15]: 77%

COc1ccccc1Nc1nc(NNC(=O)c2ccncc2)nc(Nc2ccccn2)n1
inhibition of growth at 0.0677 µM [16]: 81%

COc1cccc(Nc2nc(NNC(=O)c3ccncc3)nc(Nc3ccccn3)n2)c1
inhibition of growth at 0.689 µM [17]: 83%

O=C(NNc1nc(Nc2cccc([N+](=O)[O-])c2)nc(Nc2ccccn2)n1)c1ccncc1
inhibition of growth at 0.1109 µM [18]: 72%

O=C(NNc1nc(Nc2ccccn2)nc(Nc2ccc(Cl)cc2Cl)n1)c1ccncc1
Activity (Vero): Non-toxic | MIC [2]: 5.92 µg/mL (≈ 12.6 µM) | inhibition of growth at 0.0614 µM [19]: 92%
